Assay results reported in patent publication US9714232B2, “Substituted piperazine compounds and methods of use thereof” (Sunshine Lake Pharma Co., Ltd., priority 2013, dated 2017).

Tests used:
[1] = biological target: serotonin transporter in rat synaptosome (Rattus norvegicus (Rat), UniProt P31652); test: Inhibitory effect on [3H]5-HT uptake in rat synaptosome; type: biochemical; details: rat brain synaptosomes, 0.1 μCi [3H]5-HT, 37° C., 15 minutes
Experimental: The synaptosomes (150 μg) prepared from a rat brain were incubated at 37° C. for 15 minutes with 0.1 μCi [^3H]5-HT in the absence or presence of the test compound or the reference compound in a buffer solution containing 106.2 mM NaCl, 4.5 mM KCl, 2.25 mM MgSO4, 1.08 mM NaH2PO4, 22.5 mM NaHCO3, 9.9 mM glucose, 9 μM EGTA and 45 μM ascorbic acid (pH 7.4).
The basal control activity was determined by incubating the same mixture at 4° C. for 15 minutes in the presence of 10 μM imipramine to block the uptake of 5-HT, which was taken as the standard reference compound and tested in each experiment at several concentrations to obtain an inhibition curve.
Following the incubation, the samples were filtered rapidly under vacuum through glass fiber filters (GF/B, Packard) and rinsed twice with an ice-cold incubation buffer using a 96-sample cell harvester (Unifilter, Packard) to eliminate free [^3H]5-HT. The filters were dried and the retained radioactivity was measured in a scintillation counter (Topcount, Packard) using a scintillation cocktail (Microscint 0, Packard). The experimental results were expressed as a percent inhibition of the control uptake of [^3H]5-HT.
Inhibition of serotonin transporter in rat synaptosome was measured by the concentrations of [^3H]5-HT.

human 5-HT1A receptor = human 5-HT1A receptor (Homo sapiens (Human), UniProt P08908); test: Affinity for human 5-HT1A receptor ([3H]8-OH-DPAT binding, HEK-293 cell homogenates); details: 0.3 nM [3H]8-OH-DPAT, human HEK-293 cell homogenates, 22° C., 60 minutes; Ki from IC50 by ChengPrusoff equation
Experimental: Human HEK-293 cell homogenates (36 μg protein) were incubated at 22° C. for 60 minutes with 0.3 nM [^3H]8-0H-DPAT (Perkin-Elmer) in the absence or presence of the test compound in a buffer solution containing 50 mM Tris-HCl (pH 7.4), 10 mM MgSO4, 0.5 mM EDTA and 2 μg/ml aprotinine.
The non-specific binding value was determined by incubating the same mixture in the presence of 10 μM 8-OH-DPAT, which was used as the standard reference compound and tested in each experiment at several concentrations to obtain a competition curve.
Following the incubation, the samples were filtered rapidly under vacuum through glass fiber filter (GF/B, Packard) presoaked with 0.3% PEI and rinsed several times with ice-cold 50 mM Tris-HCl using a 96-sample cell harvester (Unifilter, Packard). The filters were dried and the retained radioactivity was measured in a scintillation counter (Topcount, Packard) using a scintillation cocktail (Microscint 0, Packard). The experimental results were expressed as a percent inhibition of the control radioligand specific binding.
Binding assay of [^3H] 8-OH-DPAT (0.3 nM) with 5-HT1A receptor in human HEK-293 cell was tested by scintillation proximity assay of membrane.

serotonin transporter in rat synaptosome, sequence (P31652 whole entry): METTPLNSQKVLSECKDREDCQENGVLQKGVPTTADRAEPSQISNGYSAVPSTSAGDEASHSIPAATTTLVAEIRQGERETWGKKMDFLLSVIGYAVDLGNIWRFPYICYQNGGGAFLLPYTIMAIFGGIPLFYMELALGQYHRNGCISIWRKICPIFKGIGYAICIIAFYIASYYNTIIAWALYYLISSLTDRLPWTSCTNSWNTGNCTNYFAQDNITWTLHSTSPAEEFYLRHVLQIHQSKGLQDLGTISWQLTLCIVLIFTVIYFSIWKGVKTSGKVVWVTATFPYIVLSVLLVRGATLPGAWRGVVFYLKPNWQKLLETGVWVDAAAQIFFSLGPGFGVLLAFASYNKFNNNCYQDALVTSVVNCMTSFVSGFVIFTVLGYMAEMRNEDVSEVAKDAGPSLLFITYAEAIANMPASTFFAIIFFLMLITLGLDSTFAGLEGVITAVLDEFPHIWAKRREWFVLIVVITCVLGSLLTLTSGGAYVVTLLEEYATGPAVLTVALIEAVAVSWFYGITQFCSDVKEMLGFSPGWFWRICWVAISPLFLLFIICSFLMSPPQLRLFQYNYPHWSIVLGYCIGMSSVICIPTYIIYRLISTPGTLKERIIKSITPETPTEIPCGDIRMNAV
human 5-HT1A receptor, sequence (P08908 whole entry): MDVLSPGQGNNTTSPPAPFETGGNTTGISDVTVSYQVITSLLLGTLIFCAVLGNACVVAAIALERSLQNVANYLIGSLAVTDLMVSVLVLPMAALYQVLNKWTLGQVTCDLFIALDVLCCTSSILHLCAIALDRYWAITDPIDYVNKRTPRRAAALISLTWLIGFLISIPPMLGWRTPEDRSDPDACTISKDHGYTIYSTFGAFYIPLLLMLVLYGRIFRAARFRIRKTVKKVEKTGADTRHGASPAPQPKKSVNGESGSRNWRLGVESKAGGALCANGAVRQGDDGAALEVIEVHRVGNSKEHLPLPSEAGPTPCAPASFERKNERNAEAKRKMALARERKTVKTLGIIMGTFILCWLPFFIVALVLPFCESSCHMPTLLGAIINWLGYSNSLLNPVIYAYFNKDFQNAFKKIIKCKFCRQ

Row | Compound | IC50 [1] [nM] | Ki (human 5-HT1A receptor) [nM]
1 | N#Cc1ccc2[nH]cc(CCCCN3CCN(c4ccc(-n5ccccc5=O)cc4)CC3)c2c1 [Example 9, 3-(4-(4-(4-(2-oxopyridin-1(2H)-yl)phenyl)piperazin-1-yl)butyl)-1H-indole-5-carbonitrile] | 8 | 0.23
2 | Cc1ccn(-c2ccc(N3CCN(CCc4c[nH]c5ccc(C#N)cc45)CC3)cc2)c(=O)c1 [Example 19, 3-(2-(4-(4-(4-methyl-2-oxopyridin-1(2H)-yl)phenyl)piperazin-1-yl)ethyl)-1H-indole-5-carbonitrile] | 2 | 33
3 | O=C1COCCN1c1ccc(N2CCN(CCCc3c[nH]c4ccc(F)cc34)CC2)cc1 [Example 7, 4-(4-(4-(3-(5-fluoro-1H-indol-3-yl)propyl)piperazin-1-yl)phenyl)morpholin-3-one] | 7.3 | 6.4
4 | N#Cc1ccc2[nH]cc(CCCCCN3CCN(c4ccc(-n5cc(F)cc(F)c5=O)cc4)CC3)c2c1 [Example 28, 3-(5-(4-(4-(3,5-difluoro-2-oxopyridin-1(2H)-yl)phenyl)piperazin-1-yl)pentyl)-1H-indole-5-carbonitrile] | 2.2 | 1.5
5 | N#Cc1ccc2[nH]cc(CCCCN3CCN(c4ccc(N5CCCCC5=O)cc4)CC3)c2c1 [Example 2, 3-(4-(4-(4-(2-oxopiperidin-1-yl)phenyl)piperazin-1-yl)butyl)-1H-indole-5-carbonitrile] | 1.8 | 1.9
6 | N#Cc1ccc2[nH]cc(CCCCN3CCN(c4ccc(-n5ccc6occc6c5=O)cc4)CC3)c2c1 [Example 33, 3-(4-(4-(4-(4-oxofuro[3,2-c]pyridin-5 (4H)-yl)phenyl)piperazin-1-yl)butyl)-1H-indole-5-carbonitrile] | 0.53 | 0.14
7 | N#Cc1ccc2[nH]cc(CCCCN3CCN(c4ccc(-n5ccncc5=O)cc4)CC3)c2c1 [Example 35, 3-(4-(4-(4-(2-oxopyrazin-1(2H)-yl)phenyl)piperazin-1-yl)butyl)-1H-indole-5-carbonitrile] | 0.8 | 0.8
8 | N#Cc1ccc2[nH]cc(CCN3CCN(c4ccc(-n5cc(F)cc(F)c5=O)cc4)CC3)c2c1 [Example 27, 3-(2-(4-(4-(3,5-difluoro-2-oxopyridin-1(2H)-yl)phenyl)piperazin-1-yl)ethyl)-1H-indole-5-carbonitrile] | 5.5 | 68
9 | Cc1ccn(-c2ccc(N3CCN(CCCc4c[nH]c5ccc(C#N)cc45)CC3)cc2)c(=O)c1 [Example 18, 3-(3-(4-(4-(4-methyl-2-oxopyridin-1(2H)-yl)phenyl)piperazin-1-yl)propyl)-1H-indole-5-carbonitrile] | 7.5 | 0.89
10 | N#Cc1ccc2[nH]cc(CCCCN3CCN(c4ccc(-n5ccc6ncccc6c5=O)cc4)CC3)c2c1 [Example 31, 3-(4-(4-(4-(5-oxo-1,6-naphthyridin-6(5H)-yl)phenyl)piperazin-1-yl)butyl)-1H-indole-5-carbonitrile] | 0.23 | 0.5
